How the values were obtained:
B2 bradykinin receptor = molecular target: T1, B2 bradykinin receptor (Homo sapiens, UniProt P30411); format: cell membranes, Membrane; details: chem-1; note: in other assays of this panel Not Active means under 50% inhibition at 10 µM
T1 sequence (P30411 whole entry): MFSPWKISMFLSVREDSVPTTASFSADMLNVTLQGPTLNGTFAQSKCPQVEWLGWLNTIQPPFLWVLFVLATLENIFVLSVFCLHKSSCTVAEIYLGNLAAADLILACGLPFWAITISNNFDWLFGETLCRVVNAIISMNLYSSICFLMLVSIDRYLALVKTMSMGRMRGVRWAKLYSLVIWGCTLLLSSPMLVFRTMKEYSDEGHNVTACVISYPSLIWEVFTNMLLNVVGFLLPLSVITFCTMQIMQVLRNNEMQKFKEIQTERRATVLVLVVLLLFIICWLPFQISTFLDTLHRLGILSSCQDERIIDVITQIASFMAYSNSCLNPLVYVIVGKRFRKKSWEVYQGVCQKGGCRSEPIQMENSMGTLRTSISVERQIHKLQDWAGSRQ

Substance-K receptor = molecular target: T2, Substance-K receptor (Homo sapiens, UniProt P21452); format: cell membranes, CHO, Membrane; details: cho; note: in other assays of this panel Not Active means under 50% inhibition at 10 µM
T2 sequence (P21452 whole entry): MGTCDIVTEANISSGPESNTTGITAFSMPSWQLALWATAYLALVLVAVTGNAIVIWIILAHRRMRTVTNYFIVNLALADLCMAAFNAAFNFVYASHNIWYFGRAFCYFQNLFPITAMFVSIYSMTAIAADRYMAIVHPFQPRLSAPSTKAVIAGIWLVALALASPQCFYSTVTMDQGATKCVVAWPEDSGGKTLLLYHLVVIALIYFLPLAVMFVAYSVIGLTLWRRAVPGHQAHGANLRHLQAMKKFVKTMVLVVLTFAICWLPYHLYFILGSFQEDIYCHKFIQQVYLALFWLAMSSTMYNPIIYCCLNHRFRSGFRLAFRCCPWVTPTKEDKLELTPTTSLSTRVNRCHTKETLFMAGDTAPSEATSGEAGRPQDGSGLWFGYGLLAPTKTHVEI

[1] = molecular target: Receptor tyrosine-protein kinase erbB-2 (Homo sapiens, UniProt P04626); experiment: biochemical; format: cell-based, Insect cells; details: insect cells;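 note: inhibition of HER2 kinase enzyme activity, measured with Poly(Glu:Tyr) as the phosphorylation substrate; in other assays of this panel Not Active means under 50% inhibition at 10 µM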
Sequence of Receptor tyrosine-protein kinase erbB-2 (P04626 whole entry): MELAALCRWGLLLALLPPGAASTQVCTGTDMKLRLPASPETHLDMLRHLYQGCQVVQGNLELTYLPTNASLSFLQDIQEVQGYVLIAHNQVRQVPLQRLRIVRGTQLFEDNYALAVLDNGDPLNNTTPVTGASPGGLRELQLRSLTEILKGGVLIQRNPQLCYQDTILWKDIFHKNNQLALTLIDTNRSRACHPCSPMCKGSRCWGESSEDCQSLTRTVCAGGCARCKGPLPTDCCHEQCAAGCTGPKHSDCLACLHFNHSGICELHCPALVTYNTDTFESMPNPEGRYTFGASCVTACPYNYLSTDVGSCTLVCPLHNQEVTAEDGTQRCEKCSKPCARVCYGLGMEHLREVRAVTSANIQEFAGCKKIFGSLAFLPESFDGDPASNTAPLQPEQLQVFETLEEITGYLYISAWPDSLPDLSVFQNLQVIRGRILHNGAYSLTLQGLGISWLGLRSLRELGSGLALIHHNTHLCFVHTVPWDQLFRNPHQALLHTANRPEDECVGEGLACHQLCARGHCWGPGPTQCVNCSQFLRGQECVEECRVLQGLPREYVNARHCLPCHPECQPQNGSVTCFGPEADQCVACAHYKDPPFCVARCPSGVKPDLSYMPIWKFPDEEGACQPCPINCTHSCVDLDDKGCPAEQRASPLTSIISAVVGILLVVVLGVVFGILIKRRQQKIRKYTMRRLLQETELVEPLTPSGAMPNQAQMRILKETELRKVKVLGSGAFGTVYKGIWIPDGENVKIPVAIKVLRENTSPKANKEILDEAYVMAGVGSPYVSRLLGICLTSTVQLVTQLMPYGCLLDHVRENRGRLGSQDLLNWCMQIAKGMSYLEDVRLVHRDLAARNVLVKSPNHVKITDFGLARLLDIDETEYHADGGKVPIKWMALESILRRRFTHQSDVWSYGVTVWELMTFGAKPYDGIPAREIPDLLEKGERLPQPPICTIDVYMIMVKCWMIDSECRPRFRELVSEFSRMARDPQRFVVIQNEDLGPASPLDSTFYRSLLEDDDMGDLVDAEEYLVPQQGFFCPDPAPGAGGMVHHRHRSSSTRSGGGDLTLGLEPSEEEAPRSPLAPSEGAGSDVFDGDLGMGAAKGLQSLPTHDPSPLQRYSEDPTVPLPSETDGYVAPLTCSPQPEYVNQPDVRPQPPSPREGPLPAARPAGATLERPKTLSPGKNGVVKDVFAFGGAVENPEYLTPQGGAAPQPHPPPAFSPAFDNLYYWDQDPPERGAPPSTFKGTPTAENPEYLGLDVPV

[2] = DRUGMATRIX: Calcium Channel Type L, Phenylalkylamine radioligand binding (ligand: [3H] (-)-Desmethoxyverapamil (D-888)); format: cell membranes, Rattus norvegicus, Wistar, Brain, Membrane; details: Not Active = under 50% inhibition at 10 µM
Cytochrome P450 1A2 = molecular target: T3, Cytochrome P450 1A2 (Homo sapiens, UniProt P05177); details: bti-tn-5b1-4; note: in other assays of this panel Not Active means under 50% inhibition at 10 µM
T3 sequence (P05177 whole entry): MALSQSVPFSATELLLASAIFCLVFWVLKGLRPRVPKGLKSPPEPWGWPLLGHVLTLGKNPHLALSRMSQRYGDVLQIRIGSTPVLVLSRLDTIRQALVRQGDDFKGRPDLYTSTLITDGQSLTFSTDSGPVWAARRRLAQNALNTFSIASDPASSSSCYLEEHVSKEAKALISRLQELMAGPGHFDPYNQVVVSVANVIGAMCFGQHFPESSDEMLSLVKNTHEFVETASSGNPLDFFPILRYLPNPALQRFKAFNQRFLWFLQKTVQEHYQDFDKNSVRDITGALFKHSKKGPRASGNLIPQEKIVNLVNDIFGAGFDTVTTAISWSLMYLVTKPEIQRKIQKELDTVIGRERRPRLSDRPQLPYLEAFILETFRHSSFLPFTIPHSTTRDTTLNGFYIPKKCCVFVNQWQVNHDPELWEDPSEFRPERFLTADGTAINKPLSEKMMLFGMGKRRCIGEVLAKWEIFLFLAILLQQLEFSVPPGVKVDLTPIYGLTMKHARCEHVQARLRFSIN

[3] = molecular target: T4, 3-hydroxy-3-methylglutaryl-coenzyme A reductase (Homo sapiens, UniProt P04035); parameters: species or system Escherichia coli
T4 sequence (P04035 whole entry): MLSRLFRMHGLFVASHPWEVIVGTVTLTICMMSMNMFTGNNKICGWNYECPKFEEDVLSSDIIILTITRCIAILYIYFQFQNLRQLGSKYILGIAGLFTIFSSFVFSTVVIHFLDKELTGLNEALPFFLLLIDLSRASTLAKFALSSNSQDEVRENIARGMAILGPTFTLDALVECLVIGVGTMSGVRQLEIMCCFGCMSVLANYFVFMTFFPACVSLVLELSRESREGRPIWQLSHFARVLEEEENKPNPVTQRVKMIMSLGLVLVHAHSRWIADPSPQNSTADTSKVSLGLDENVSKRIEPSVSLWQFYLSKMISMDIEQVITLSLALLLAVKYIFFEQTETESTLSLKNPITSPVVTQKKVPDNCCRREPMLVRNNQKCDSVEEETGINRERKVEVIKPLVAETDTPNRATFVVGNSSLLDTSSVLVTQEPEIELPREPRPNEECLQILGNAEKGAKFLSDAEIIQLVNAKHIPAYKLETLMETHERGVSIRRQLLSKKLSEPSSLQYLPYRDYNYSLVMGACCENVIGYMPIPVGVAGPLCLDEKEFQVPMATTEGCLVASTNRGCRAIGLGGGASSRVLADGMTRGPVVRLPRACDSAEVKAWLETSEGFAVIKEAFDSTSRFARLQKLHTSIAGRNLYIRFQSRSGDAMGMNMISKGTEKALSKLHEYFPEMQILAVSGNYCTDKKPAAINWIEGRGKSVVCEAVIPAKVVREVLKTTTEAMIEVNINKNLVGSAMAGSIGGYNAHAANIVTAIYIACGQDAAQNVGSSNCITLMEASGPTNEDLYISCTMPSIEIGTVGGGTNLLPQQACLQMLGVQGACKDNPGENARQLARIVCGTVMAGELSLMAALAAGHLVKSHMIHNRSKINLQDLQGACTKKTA

Cc1c(C)c2c(c(C)c1O)CC[C@@](C)(CCC[C@H](C)CCC[C@H](C)CCCC(C)C)O2 [ALPHA-TOCOPHEROL]
Not Active: IC50 (B2 bradykinin receptor) | IC50 (Substance-K receptor) | IC50 [1] | IC50 [2] | Ki [2] | IC50 (Cytochrome P450 1A2) | Ki (Cytochrome P450 1A2) | IC50 [3]

NCCCCCC(=O)O [AMINOCAPROIC ACID]
Not Active: IC50 (B2 bradykinin receptor) | IC50 (Substance-K receptor) | IC50 [1] | IC50 [2] | Ki [2] | IC50 (Cytochrome P450 1A2) | Ki (Cytochrome P450 1A2) | IC50 [3]

CCC1(c2ccc(N)cc2)CCC(=O)NC1=O (configuration not stated) [AMINOGLUTETHIMIDE]
Not Active: IC50 (B2 bradykinin receptor) | IC50 (Substance-K receptor) | IC50 [1] | IC50 [2] | Ki [2] | IC50 (Cytochrome P450 1A2) | Ki (Cytochrome P450 1A2) | IC50 [3]

Cc1ccc(/N=C/N(C)/C=N/c2ccc(C)cc2C)c(C)c1 [AMITRAZ]
Not Active: IC50 (B2 bradykinin receptor) | IC50 (Substance-K receptor) | IC50 [1] | IC50 [2] | Ki [2] | IC50 (Cytochrome P450 1A2) | Ki (Cytochrome P450 1A2) | IC50 [3]

CCOC(=O)C1=C(COCCN)NC(C)=C(C(=O)OC)C1c1ccccc1Cl (configuration not stated) [AMLODIPINE]
Not Active: IC50 (B2 bradykinin receptor) | IC50 (Substance-K receptor) | IC50 [1] | IC50 [2] | Ki [2] | IC50 (Cytochrome P450 1A2) | Ki (Cytochrome P450 1A2) | IC50 [3]

COc1ccc(C[C@H]2NC[C@H](O)[C@H]2OC(C)=O)cc1 [ANISOMYCIN]
Not Active: IC50 (B2 bradykinin receptor) | Ki (B2 bradykinin receptor) | IC50 (Substance-K receptor) | Ki (Substance-K receptor) | IC50 [1] | Ki [1] | IC50 [2] | Ki [2] | IC50 (Cytochrome P450 1A2) | Ki (Cytochrome P450 1A2) | IC50 [3] | Ki [3]

Nc1ncn([C@@H]2O[C@H](CO)[C@@H](O)[C@H]2O)c(=O)n1 [AZACITIDINE]
Not Active: IC50 (B2 bradykinin receptor) | IC50 (Substance-K receptor) | IC50 [1] | IC50 [2] | Ki [2] | IC50 (Cytochrome P450 1A2) | Ki (Cytochrome P450 1A2) | IC50 [3]

CN(C)C(=O)Oc1cc(OC(=O)N(C)C)cc(C(O)CNC(C)(C)C)c1 (configuration not stated) [BAMBUTEROL]
Not Active: IC50 (B2 bradykinin receptor) | IC50 (Substance-K receptor) | IC50 [1] | IC50 [2] | Ki [2] | IC50 (Cytochrome P450 1A2) | Ki (Cytochrome P450 1A2) | IC50 [3]

CNCCc1ccccn1 [BETAHISTINE]
Not Active: IC50 (B2 bradykinin receptor) | IC50 (Substance-K receptor) | IC50 [1] | IC50 [2] | Ki [2] | IC50 (Cytochrome P450 1A2) | Ki (Cytochrome P450 1A2) | IC50 [3]

CC(C)C(Br)C(=O)NC(N)=O (configuration not stated) [BROMISOVALUM]
Not Active: IC50 (B2 bradykinin receptor) | IC50 (Substance-K receptor) | IC50 [1] | IC50 [2] | Ki [2] | IC50 (Cytochrome P450 1A2) | Ki (Cytochrome P450 1A2) | IC50 [3]

CCCC1O[C@@H]2C[C@H]3[C@@H]4CCC5=CC(=O)C=C[C@]5(C)[C@H]4[C@@H](O)C[C@]3(C)[C@]2(C(=O)CO)O1 (some centres not stated) [BUDESONIDE]
Not Active: IC50 (B2 bradykinin receptor) | IC50 (Substance-K receptor) | IC50 [1] | IC50 [2] | Ki [2] | IC50 (Cytochrome P450 1A2) | Ki (Cytochrome P450 1A2) | IC50 [3]

CC(NC(C)(C)C)C(=O)c1cccc(Cl)c1 (configuration not stated) [BUPROPION]
Not Active: IC50 (B2 bradykinin receptor) | IC50 (Substance-K receptor) | IC50 [1] | IC50 [2] | Ki [2] | IC50 (Cytochrome P450 1A2) | Ki (Cytochrome P450 1A2) | IC50 [3]

CN(Cc1ccc(C(C)(C)C)cc1)Cc1cccc2ccccc12 [BUTENAFINE]
Not Active: IC50 (B2 bradykinin receptor) | IC50 (Substance-K receptor) | IC50 [1] | IC50 [2] | Ki [2] | IC50 (Cytochrome P450 1A2) | Ki (Cytochrome P450 1A2) | IC50 [3]

C[C@H](CS)C(=O)N1CCC[C@H]1C(=O)O [CAPTOPRIL]
Not Active: IC50 (B2 bradykinin receptor) | IC50 (Substance-K receptor) | IC50 [1] | IC50 [2] | Ki [2] | IC50 (Cytochrome P450 1A2) | Ki (Cytochrome P450 1A2) | IC50 [3]

Cc1ccc(-c2cc(C(F)(F)F)nn2-c2ccc(S(N)(=O)=O)cc2)cc1 [CELECOXIB]
Not Active: IC50 (B2 bradykinin receptor) | IC50 (Substance-K receptor) | IC50 [1] | IC50 [2] | Ki [2] | IC50 (Cytochrome P450 1A2) | Ki (Cytochrome P450 1A2) | IC50 [3]

O=C(O)CCCc1ccc(N(CCCl)CCCl)cc1 [CHLORAMBUCIL]
Not Active: IC50 (B2 bradykinin receptor) | IC50 (Substance-K receptor) | IC50 [1] | IC50 [2] | Ki [2] | IC50 (Cytochrome P450 1A2) | Ki (Cytochrome P450 1A2) | IC50 [3]

Reference: ChEMBL document CHEMBL1909046, “DrugMatrix in vitro pharmacology data”
